Nine molecules from patent publication US8633206B2, “Pyrrolo[2,3-D]pyrimidine compounds” (Pfizer Inc., priority 2009, dated 2014) can be followed below.

Each structure is given as a SMILES string.

Holding throughout (format): biochemical
For test [1], the target named is JAK3 (Homo sapiens (Human), UniProt P52333). Nature of the test: JAK enzymatic assay (peptide mobility shift), JAK3. To be noted: recombinant JAK3 1 nM, JAKtide peptide, 90 minutes.
Test [2] concerns the target JAK2 (Homo sapiens (Human), UniProt O60674). Nature of the test: JAK enzymatic assay (peptide mobility shift), JAK2. To be noted: recombinant JAK2 2 nM, JAKtide peptide, 150 minutes.
Test [3] addresses JAK1 (Homo sapiens (Human), UniProt P23458). Nature of the test: JAK enzymatic assay (peptide mobility shift), JAK1. To be noted: recombinant JAK1 20 nM, IRS-1 peptide, 240 minutes.

Sequence of JAK2 (O60674 808-1132): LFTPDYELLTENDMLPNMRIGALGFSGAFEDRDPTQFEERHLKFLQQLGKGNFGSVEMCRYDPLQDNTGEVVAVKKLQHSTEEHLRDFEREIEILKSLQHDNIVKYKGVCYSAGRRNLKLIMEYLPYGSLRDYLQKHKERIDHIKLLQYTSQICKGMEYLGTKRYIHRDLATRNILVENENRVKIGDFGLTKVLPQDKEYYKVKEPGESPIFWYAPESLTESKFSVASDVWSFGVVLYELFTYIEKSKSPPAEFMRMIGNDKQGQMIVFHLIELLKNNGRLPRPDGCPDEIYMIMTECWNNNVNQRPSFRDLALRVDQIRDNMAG
Sequence of JAK1 (P23458 whole entry): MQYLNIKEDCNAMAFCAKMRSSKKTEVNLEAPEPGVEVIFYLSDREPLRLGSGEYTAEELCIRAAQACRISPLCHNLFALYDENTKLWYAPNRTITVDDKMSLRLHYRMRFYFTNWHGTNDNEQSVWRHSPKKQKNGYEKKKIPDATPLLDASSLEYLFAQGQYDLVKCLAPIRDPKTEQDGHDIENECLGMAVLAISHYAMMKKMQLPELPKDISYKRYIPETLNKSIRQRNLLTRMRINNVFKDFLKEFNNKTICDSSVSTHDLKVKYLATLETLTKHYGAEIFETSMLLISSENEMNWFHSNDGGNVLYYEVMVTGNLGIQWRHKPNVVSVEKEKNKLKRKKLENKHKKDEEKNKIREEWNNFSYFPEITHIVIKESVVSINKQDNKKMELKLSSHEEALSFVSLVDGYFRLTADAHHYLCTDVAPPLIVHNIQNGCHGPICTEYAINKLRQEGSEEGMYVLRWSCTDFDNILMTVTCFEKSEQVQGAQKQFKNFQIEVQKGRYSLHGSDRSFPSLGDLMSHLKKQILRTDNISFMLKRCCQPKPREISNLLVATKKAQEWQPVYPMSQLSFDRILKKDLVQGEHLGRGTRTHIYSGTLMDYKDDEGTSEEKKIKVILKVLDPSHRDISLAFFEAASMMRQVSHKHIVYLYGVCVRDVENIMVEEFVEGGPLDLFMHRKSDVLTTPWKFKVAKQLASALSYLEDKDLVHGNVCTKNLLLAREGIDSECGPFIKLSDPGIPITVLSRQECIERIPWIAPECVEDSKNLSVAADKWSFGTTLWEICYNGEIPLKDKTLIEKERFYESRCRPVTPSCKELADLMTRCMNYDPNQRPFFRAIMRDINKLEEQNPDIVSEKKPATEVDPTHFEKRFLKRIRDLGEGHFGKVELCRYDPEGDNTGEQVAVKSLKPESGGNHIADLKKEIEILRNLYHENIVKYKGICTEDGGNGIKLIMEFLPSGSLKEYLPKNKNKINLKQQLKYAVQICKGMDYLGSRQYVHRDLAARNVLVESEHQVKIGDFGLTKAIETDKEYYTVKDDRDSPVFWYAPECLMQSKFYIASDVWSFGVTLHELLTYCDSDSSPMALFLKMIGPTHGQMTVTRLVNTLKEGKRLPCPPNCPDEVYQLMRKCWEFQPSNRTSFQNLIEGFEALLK
Sequence of JAK3 (P52333 781-1124): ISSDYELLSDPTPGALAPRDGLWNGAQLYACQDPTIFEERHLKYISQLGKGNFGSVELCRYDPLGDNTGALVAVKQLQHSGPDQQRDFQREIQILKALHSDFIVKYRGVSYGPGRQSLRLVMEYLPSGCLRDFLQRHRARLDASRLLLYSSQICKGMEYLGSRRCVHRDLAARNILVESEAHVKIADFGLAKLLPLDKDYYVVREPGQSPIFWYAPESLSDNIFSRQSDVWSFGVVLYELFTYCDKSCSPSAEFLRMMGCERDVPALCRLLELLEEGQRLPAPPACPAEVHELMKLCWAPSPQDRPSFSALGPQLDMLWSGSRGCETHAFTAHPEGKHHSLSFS

Consider `CN(c1ncnc2[nH]ccc12)[C@H]1CC[C@H](CS(=O)(=O)N2CC(c3nnn[nH]3)C2)CC1` [Example 113, N-methyl-N-[trans-4-({[3-(1H-tetrazol-5-yl)azetidin-1-yl]sulfonyl}methyl)-cyclohexyl]-7H-pyrrolo[2,3-d]pyrimidin-4-amine], for which the IC50 was 111 nM in test [1], 9.99 nM in test [2] and 1.55 nM in test [3].

Consider `CN(c1ncnc2[nH]ccc12)[C@H]1CC[C@H](CS(=O)(=O)N2CC(S(=O)(=O)c3ccccc3)C2)CC1` [Example 114, N-methyl-N-[trans-4-({[3-(phenylsulfonyl)azetidin-l-yl]sulfonyl}methyl)cyclo-hexyl]-7H-pyrrolo[2,3-d]-pyrimidin-4-amine], for which the IC50 in test [1] came to 63 nM; in test [2], 9.2 nM; in test [3], 3.05 nM.

On to `CN(c1ncnc2[nH]ccc12)[C@H]1CC[C@H](CS(=O)(=O)N2CC(O)C2)CC1` [Example 115, 1-[({trans-4-[methyl(7H-pyrrolo[2,3-d]pyrimidin-4-yl)amino]cyclohexyl}-methyl)sulfonyl]azetidin-3-ol], for which the 50% inhibitory concentration (IC50) in test [1] is 303 nM; in test [2], 34.4 nM; in test [3] it was 10.7 nM.

Regarding `CN(c1ncnc2[nH]ccc12)[C@H]1CC[C@H](CS(=O)(=O)N2CC(S(=O)(=O)CC3CC3)C2)CC1` [Example 116, N-{trans-4-[({3-[(cyclopropylmethyl)-sulfonyl]azetidin-1-yl}sulfonyl)methyl]cyclo-hexyl}-N-methyl-7H-pyrrolo[2,3-d]pyrimidin-4-amine], the IC50 was 298 nM in test [1], 49.9 nM in test [2] and 10.7 nM in test [3].

Consider `COC(=O)NC1CN(S(=O)(=O)C[C@H]2CC[C@H](N(C)c3ncnc4[nH]ccc34)CC2)C1` [Example 117, methyl {1-[({trans-4-[methyl(7H-pyrrolo[2,3-d]pyrimidin-4-yl)amino]-cyclohexyl}methyl)sulfonyl]azetidin-3-yl}carbamate], for which the IC50 came to 382 nM in test [1], 32.4 nM in test [2] and 11 nM in test [3].

With `Cc1ccc(N2CCN(S(=O)(=O)C[C@H]3CC[C@H](N(C)c4ncnc5[nH]ccc45)CC3)CC2)nc1` [Example 118, N-methyl-N-[trans-4-({[4-(5-methylpyridin-2-yl)piperazin-1-yl]sulfonyl}-methyl)cyclohexyl]-7H-pyrrolo[2,3-d]pyrimidin-4-amine], the concentration for half-maximal inhibition (IC50) in test [1] amounted to 255 nM; in test [2] it was 50.8 nM; in test [3], 16.7 nM.

In the case of `Cc1cccc(N2CCN(S(=O)(=O)C[C@H]3CC[C@H](N(C)c4ncnc5[nH]ccc45)CC3)CC2)n1` [Example 119, N-methyl-N-[trans-4-({[4-(6-methylpyridin-2-yl)piperazin-1-yl]sulfonyl}-methyl)cyclohexyl]-7H-pyrrolo[2,3-d]pyrimidin-4-amine], the 50% inhibitory concentration (IC50) in test [1] is 88.9 nM; in test [2], 13.7 nM; in test [3] it was 6.48 nM.

With `CN(c1ncnc2[nH]ccc12)[C@H]1CC[C@H](CS(=O)(=O)N2CCN(c3ccccn3)CC2)CC1` [Example 120, N-methyl-N-(trans-4-{[(4-pyridin-2-ylpiperazin-1-yl)sulfonyl]methyl}cyclo-hexyl)-7H-pyrrolo[2,3-d]-pyrimidin-4-amine], the figures for the half-inhibitory concentration (IC50) in test [1], in test [2] and in test [3] were 208 nM, 22.3 nM and 8.43 nM, respectively.

As for `CN(c1ncnc2[nH]ccc12)[C@H]1CC[C@H](CS(=O)(=O)N2CCN(c3ncccc3C(=O)NC3CC3)CC2)CC1` [Example 121, N-cyclopropyl-2-{4-[({trans-4-[methyl(7H-pyrrolo[2,3-d]pyrimidin-4-yl)amino]-cyclohexyl}methyl)sulfonyl]piperazin-1yl}nicotinamide], the IC50 in test [1] came to 595 nM; in test [2], 43.1 nM; in test [3], 10.4 nM.
